Laboratory results reported in patent US11807852B2, “Compositions and methods for reactivating latent immunodeficiency virus” (The J. David Gladstone Institutes, a testamentary trust …, priority 2014, dated 2023).

Tests used:
[1] = tested on: latent HIV-1 in CD4+ T cells from HIV-1-infected individuals; experiment: Intracellular HIV-1 mRNA (ddPCR) in CD4+ T cells from HIV-1-infected individuals treated ex vivo; format: cell-based
Description: Four aviremic HIV-1-infected individuals were recruited from the SCOPE cohorts at the University of California. San Francisco. Table 2 details the characteristics of the study participants.
Peripheral blood mononuclear cells (PBMCs) from whole blood or continuous flow centrifugation leukapheresis product were purified using density centrifugation on a Ficoll-Hypaque gradient. Resting CD4^+ lymphocytes were enriched by negative depletion with an EasySepHuman CD4^+ T Cell Isolation Kit (Stemcell). Cells were cultured in RPMI medium supplemented with 10% fetal bovine serum, penicillin/streptomycin and 5 μM saquinavir. Five million resting CD4′ lymphocytes were stimulated with latency-reversing agents (LRAs) at the indicated concentrations (20-500 nM AZ391, 100 nM JQ1, 25 μl/1×10^6 T cells αCD3/αCD28 Dynabeads (Life Technologies) for 48 hours. After LRA treatment, cells were collected, lysed and total RNA was isolated with an RNeasy kit (Quiagen). A Superscript III One-Step RT-PCR system (Life Technologies) was used to generate and pre-amplify cell-associated viral mRNA. Reaction mixes contained 15 μl of a PCR mix containing reaction mix, Superscript III, primers (900 nM final concentration) and 10 μl purified RNA. Pre-amplification was carried out using the following steps: reverse transcription at 50° C. for 30 min, denaturation at 95° C. for 2 min, 10 cycles of amplification (94° C. 15 s, 55° C. 30 s, 68° C. 5 min) on a GeneAmp PCR system 9700 (Thermo Fisher). Subsequently, droplet digital PCR (ddPCR) was applied to quantify pre-amplified cDNA. Each 25 μl ddPCR mix comprised the ddPCR Probe Supermix (no dUTP), 900 nM primers, 250 nM probe, and 4 μl cDNA. The following cycling conditions were used: 10 minutes at 95° C. […] Finally, samples were amplified on a BioRad C1000 Thermocycler and analyzed using a BioRad QX100 ddPCR Reader. […]
Next, AZ391 was tested in CD4^+ T cells from HIV-1-infected individuals on suppressive ART. […] After 48 hours, levels of intracellular HIV-1 mRNA were measured by droplet digital RT-PCR using a previously published primer/probe set (Laird et al., 2015). […]

[2] = target: SMYD2 (Homo sapiens, UniProt Q9NRG4); experiment: In vitro SMYD2 methylation assay of histone H4; format: biochemical; design: purchased Sigma-Aldrich
Experimental: In vitro Methylation assays were performed as described (Nishioka et al., 2002). For reactions, 2 gtg of histones (isolated from HEK293T cells), recombinant histone 4 (New England Biolabs), synthetic histone 4 as 1-21 and as 15-24 peptides (Cayman Chemical), or synthetic histone H4 as 1-21 with a K20A mutation (GenScript) were incubated with recombinant WT SMYD2 (Sigma-Aldrich) or SMYD2 Y240F (Active Motif) in a buffer containing 50 mM Tris-HCl, pH 9, 0.01% Tween 20, 2 mM DTT and 1.1 μCi of H3-labeled SAM (Perk-in Elmer) overnight at 30° C. Reaction mixtures were fractionated on 15% SDS-PAGE for proteins or on 10-20% Tris-Tricine gradient gels for peptides (BioRad). After Coomassie staining, gels were treated with Amplify. (GE Healthcare) for 30 min, dried and exposed to hyperfilm (GE Healthcare) overnight.

Chain of SMYD2 (Q9NRG4 whole entry): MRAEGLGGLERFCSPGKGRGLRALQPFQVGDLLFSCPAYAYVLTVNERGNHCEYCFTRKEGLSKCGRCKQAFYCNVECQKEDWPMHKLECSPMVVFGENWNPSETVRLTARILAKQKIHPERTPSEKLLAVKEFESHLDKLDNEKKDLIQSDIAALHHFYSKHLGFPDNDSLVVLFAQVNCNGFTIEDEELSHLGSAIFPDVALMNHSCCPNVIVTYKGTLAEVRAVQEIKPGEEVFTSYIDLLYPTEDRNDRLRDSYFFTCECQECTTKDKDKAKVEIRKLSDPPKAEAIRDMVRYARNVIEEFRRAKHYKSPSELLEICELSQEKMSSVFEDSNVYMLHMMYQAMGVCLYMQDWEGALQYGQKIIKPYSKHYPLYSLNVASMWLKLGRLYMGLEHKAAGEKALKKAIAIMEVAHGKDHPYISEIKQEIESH

N#Cc1cc(C(=O)NCCCN2CCCC2)cc(-c2ccccc2N2CCN(CCc3c[nH]c4ccccc34)CC2)c1 [AZ391]
mean increase of intracellular HIV-1 mRNA levels ([1]; 500 nM, 48 hours, three additional donors): 1.5-10 fold
intracellular HIV-1 mRNA, combination effect ([1]; combination with JQ1): no additive or synergistic effects
intracellular HIV-1 mRNA levels ([1]; increasing concentrations (maximal 500 nM), 48 hours, one individual): increased intracellular HIV-1 mRNA levels in a dose-dependent manner
methylation of recombinant human histone H4 by SMYD2 ([2]; full-length histone H4, 3H-SAM autoradiography): inhibited
methylation of synthetic histone H4 peptides by SMYD2 ([2]; peptides aa 1-21 and aa 15-24): suppressed
